According to the kinase profiling compilation of Christmann-Franck et al. (2016):
Several values for one entry are separate records, joined by “and”; a condition that tells them apart may be missing. Equal entries are not always repeated. Blank lines part the entries; values can stand above or below the molecule they belong to.

Experiments:
Test in all cases: KINOMEscan competition binding
Conditions in all cases: compound 10.0 µM
[1] = target: STK3 (human) (UniProt Q13188)
[2] = target: CSF1R (human) (UniProt P07333)
[3] = target: PIK3CB (human) (UniProt P42338)
[4] = target: CAMK2D (human) (UniProt Q13557)
[5] = target: STK36 (human) (UniProt Q9NRP7)
[6] = target: CDC42BPG (human) (UniProt Q6DT37)
[7] = target: INSR (human) (UniProt P06213)
[8] = target: MYO3A (human) (UniProt Q8NEV4)
[9] = target: EGFR (human) (UniProt P00533)
[10] = target: EPHB2 (human) (UniProt P29323)
[11] = target: MYLK2 (human) (UniProt Q9H1R3)
[12] = target: SGK110 (human) (UniProt P0C264)
[13] = target: AKT2 (human) (UniProt P31751)
[14] = target: STK35 (human) (UniProt Q8TDR2)
[15] = target: ULK1 (human) (UniProt O75385)
[16] = target: PDGFRA (human) (UniProt P16234)
[17] = target: SLK (human) (UniProt Q9H2G2)
[18] = target: RPS6KA6 KD1 (human) (UniProt Q9UK32)
[19] = target: PLK3 (human) (UniProt Q9H4B4)
[20] = target: CDC42BPA (human) (UniProt Q5VT25)
[21] = target: PAK7 (human) (UniProt Q9P286)
[22] = target: TYK2 JH1 catalytic (human) (UniProt P29597)
[23] = target: MAP3K12 (human) (UniProt Q12852)
[24] = target: STK38L (human) (UniProt Q9Y2H1)
[25] = target: MAPK4 (human) (UniProt P31152)
[26] = target: RPS6KA3 KD1 (human) (UniProt P51812)
[27] = system: ABL1 (human), P00519 [E255K]
[28] = target: ACVR1B (human) (UniProt P36896)
[29] = target: FER (human) (UniProt P16591)
[30] = target: MAPK1 (human) (UniProt P28482)
[31] = target: MARK1 (human) (UniProt Q9P0L2)
[32] = target: CAMK2B (human) (UniProt Q13554)
[33] = target: CDK18 (human) (UniProt Q07002)
[34] = target: IKBKE (human) (UniProt Q14164)
[35] = target: PRKX (human) (UniProt P51817)
[36] = target: MAP4K3 (human) (UniProt Q8IVH8)
[37] = target: TIE1 (human) (UniProt P35590)
[38] = target: PLK1 (human) (UniProt P53350)
[39] = target: FGFR4 (human) (UniProt P22455)
[40] = system: ABL1 (human), P00519 [M351T]
[41] = target: PRKG1 (human) (UniProt Q13976)
[42] = target: SRC (human) (UniProt P12931)

Sequence of PDGFRA (human) (P16234 whole entry, looked up): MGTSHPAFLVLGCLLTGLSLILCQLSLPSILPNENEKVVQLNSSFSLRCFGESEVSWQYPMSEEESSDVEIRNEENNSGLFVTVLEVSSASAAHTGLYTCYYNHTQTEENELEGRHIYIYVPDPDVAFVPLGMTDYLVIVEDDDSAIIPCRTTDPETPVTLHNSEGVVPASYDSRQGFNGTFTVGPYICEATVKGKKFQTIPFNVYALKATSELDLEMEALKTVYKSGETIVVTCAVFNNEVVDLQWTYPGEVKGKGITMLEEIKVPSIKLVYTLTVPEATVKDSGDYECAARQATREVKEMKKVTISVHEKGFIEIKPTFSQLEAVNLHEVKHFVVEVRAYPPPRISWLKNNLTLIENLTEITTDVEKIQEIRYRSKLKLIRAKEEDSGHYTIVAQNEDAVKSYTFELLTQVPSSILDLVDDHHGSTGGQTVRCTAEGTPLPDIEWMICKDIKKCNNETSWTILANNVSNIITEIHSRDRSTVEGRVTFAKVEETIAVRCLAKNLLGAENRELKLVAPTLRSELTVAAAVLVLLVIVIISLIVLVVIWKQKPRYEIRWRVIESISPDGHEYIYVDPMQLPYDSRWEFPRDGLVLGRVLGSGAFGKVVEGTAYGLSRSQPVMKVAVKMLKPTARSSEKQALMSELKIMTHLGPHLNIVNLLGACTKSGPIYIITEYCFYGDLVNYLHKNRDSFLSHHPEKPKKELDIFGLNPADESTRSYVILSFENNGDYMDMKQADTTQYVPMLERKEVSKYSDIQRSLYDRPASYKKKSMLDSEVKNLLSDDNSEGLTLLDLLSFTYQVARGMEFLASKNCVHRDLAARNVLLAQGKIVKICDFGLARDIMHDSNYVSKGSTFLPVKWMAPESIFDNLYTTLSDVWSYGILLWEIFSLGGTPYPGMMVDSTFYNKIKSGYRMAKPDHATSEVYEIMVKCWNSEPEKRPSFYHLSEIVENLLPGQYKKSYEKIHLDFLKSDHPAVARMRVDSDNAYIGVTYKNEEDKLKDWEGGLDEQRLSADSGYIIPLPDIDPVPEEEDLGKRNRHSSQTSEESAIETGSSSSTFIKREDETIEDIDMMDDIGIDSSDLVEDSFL
Sequence of ULK1 (human) (O75385 whole entry, looked up): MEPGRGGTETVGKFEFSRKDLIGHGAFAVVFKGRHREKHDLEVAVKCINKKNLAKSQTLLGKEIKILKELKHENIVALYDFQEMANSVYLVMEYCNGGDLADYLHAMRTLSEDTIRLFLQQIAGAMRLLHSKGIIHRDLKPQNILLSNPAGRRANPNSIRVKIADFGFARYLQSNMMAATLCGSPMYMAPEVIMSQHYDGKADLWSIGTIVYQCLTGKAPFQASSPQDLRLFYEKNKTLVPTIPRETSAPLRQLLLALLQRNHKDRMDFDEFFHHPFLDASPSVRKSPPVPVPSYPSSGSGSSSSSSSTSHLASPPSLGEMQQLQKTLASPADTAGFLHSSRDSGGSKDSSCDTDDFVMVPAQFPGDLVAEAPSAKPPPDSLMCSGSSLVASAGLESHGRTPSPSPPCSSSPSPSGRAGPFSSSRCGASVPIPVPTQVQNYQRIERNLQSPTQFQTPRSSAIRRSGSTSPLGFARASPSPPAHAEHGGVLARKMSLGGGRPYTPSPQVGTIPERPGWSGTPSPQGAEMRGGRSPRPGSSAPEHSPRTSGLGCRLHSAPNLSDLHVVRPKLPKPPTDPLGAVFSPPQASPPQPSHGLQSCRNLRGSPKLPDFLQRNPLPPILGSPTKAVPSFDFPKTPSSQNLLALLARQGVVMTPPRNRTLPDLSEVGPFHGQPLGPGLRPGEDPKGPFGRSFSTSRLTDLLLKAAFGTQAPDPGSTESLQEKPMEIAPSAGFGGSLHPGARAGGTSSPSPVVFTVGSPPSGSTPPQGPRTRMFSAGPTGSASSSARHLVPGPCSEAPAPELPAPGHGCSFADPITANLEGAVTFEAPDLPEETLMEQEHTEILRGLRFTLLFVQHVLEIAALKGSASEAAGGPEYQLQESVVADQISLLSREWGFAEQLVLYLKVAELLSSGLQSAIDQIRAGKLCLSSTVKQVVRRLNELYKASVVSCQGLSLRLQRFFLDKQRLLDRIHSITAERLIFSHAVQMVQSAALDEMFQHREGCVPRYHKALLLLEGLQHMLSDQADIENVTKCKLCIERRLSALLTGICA
Sequence of STK3 (human) (Q13188 whole entry, looked up): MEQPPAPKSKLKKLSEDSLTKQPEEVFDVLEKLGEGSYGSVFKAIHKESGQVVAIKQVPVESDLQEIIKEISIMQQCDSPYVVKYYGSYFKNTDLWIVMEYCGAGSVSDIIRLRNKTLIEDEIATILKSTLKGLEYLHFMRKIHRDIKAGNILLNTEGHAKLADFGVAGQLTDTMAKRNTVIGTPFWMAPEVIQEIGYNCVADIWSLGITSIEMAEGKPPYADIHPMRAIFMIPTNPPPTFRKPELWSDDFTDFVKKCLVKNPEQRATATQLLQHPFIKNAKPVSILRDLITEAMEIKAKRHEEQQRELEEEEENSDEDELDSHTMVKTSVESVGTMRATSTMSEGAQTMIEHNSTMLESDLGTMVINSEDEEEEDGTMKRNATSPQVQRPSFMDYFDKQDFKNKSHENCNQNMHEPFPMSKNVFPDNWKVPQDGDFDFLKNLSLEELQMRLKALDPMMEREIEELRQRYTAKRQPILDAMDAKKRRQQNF
Sequence of STK36 (human) (Q9NRP7 whole entry, looked up): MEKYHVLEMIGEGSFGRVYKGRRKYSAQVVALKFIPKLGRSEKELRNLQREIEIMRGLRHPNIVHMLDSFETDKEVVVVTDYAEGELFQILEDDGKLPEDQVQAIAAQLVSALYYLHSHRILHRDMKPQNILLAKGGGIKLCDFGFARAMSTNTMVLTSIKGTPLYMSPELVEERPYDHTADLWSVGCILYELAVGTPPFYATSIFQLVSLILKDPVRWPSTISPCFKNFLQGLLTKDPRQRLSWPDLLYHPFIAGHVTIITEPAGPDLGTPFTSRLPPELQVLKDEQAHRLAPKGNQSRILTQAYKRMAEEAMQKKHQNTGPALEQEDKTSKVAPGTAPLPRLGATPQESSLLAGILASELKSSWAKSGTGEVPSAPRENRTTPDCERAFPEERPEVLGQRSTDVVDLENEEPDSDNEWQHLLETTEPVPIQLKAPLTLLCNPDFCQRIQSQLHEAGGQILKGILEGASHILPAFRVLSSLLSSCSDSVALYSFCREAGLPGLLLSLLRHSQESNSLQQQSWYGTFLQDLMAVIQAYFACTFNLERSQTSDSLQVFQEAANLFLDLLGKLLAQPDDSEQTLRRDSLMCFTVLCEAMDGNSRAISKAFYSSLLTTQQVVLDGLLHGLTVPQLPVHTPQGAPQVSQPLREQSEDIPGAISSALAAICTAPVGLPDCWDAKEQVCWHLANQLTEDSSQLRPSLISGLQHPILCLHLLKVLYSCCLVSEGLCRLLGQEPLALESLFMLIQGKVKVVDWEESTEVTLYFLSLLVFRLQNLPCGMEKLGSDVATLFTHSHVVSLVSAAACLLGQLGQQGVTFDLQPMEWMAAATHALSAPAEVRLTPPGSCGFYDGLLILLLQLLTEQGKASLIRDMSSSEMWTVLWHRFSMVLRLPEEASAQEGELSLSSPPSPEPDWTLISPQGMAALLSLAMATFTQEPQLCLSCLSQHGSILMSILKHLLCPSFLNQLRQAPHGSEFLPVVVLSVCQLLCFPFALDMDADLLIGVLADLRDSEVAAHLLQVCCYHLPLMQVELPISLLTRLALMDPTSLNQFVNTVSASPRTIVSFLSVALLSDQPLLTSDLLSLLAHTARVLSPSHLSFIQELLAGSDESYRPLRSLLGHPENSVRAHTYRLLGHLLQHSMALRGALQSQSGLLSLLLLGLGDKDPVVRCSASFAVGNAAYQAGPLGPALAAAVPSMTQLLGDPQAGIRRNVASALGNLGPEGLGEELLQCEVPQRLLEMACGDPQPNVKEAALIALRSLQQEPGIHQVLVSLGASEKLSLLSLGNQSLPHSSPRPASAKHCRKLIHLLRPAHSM
Sequence of PAK7 (human) (Q9P286 whole entry, looked up): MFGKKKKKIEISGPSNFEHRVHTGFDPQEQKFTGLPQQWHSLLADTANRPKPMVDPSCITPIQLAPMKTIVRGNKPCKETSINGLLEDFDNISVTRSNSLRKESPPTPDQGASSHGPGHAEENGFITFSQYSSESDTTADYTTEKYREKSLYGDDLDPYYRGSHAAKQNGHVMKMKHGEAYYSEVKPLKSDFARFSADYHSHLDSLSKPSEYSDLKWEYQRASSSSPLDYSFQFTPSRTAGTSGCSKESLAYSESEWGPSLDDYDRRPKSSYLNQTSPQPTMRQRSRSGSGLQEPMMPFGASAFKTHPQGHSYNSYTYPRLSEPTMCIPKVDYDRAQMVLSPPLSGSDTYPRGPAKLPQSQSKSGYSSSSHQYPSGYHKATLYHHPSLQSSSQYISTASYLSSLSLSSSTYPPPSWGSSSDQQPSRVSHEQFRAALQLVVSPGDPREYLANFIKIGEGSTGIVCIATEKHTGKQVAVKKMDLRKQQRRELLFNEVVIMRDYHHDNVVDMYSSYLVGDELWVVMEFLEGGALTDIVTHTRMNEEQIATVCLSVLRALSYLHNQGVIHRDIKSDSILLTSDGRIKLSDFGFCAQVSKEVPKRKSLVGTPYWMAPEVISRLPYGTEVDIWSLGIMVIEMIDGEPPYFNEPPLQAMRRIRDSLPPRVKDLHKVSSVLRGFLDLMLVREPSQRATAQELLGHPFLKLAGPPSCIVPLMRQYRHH
Sequence of MAPK1 (human) (P28482 whole entry, looked up): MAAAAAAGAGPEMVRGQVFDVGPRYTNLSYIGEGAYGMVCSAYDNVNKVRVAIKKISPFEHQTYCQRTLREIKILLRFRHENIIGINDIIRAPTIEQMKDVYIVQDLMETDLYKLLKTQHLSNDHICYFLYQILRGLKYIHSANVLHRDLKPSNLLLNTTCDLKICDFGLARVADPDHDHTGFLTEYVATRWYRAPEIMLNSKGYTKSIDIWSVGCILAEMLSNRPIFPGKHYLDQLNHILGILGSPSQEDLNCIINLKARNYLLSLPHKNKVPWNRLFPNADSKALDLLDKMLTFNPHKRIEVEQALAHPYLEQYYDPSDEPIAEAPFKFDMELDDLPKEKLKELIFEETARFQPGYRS

kinase still bound, per cent of control [1]: 69% | kinase still bound, per cent of control [2]: 54% | kinase still bound, per cent of control [3]: 90% | kinase still bound, per cent of control [4]: 59% | kinase still bound, per cent of control [5]: 100% | kinase still bound, per cent of control [6]: 91% | kinase still bound, per cent of control [7]: 100% | kinase still bound, per cent of control [8]: 59% | kinase still bound, per cent of control [9]: 80% and 87% | kinase still bound, per cent of control [10]: 100% | kinase still bound, per cent of control [11]: 90% | kinase still bound, per cent of control [12]: 55% | kinase still bound, per cent of control [13]: 96% | kinase still bound, per cent of control [14]: 89% | kinase still bound, per cent of control [15]: 6.5% | kinase still bound, per cent of control [16]: 87% | kinase still bound, per cent of control [17]: 87% | kinase still bound, per cent of control [18]: 96% | kinase still bound, per cent of control [19]: 22% | kinase still bound, per cent of control [20]: 98% | kinase still bound, per cent of control [21]: 71% | kinase still bound, per cent of control [22]: 62% | kinase still bound, per cent of control [23]: 86% | kinase still bound, per cent of control [24]: 88% | kinase still bound, per cent of control [25]: 66% | kinase still bound, per cent of control [26]: 99% | kinase still bound, per cent of control [27]: 85% | kinase still bound, per cent of control [28]: 86% | kinase still bound, per cent of control [29]: 36% | kinase still bound, per cent of control [30]: 83% | kinase still bound, per cent of control [31]: 64% | kinase still bound, per cent of control [32]: 58% | kinase still bound, per cent of control [33]: 76% | kinase still bound, per cent of control [34]: 100% | kinase still bound, per cent of control [35]: 82% | kinase still bound, per cent of control [36]: 79% | kinase still bound, per cent of control [37]: 93% | kinase still bound, per cent of control [38]: 2.5% | kinase still bound, per cent of control [39]: 40% | kinase still bound, per cent of control [40]: 82% | kinase still bound, per cent of control [41]: 100% | kinase still bound, per cent of control [42]: 97%
SMILES: COc1cc(N2CCN(C)CC2)ccc1Nc1ncc2c(n1)N(C)c1sccc1C(=O)N2C

kinase still bound, per cent of control [1]: 82% | kinase still bound, per cent of control [2]: 71% | kinase still bound, per cent of control [3]: 100% | kinase still bound, per cent of control [4]: 100% | kinase still bound, per cent of control [5]: 100% | kinase still bound, per cent of control [6]: 100% | kinase still bound, per cent of control [7]: 100% | kinase still bound, per cent of control [8]: 100% | kinase still bound, per cent of control [9]: 100% | kinase still bound, per cent of control [10]: 91% | kinase still bound, per cent of control [11]: 100% | kinase still bound, per cent of control [12]: 100% | kinase still bound, per cent of control [13]: 100% | kinase still bound, per cent of control [14]: 100% | kinase still bound, per cent of control [15]: 78% | kinase still bound, per cent of control [16]: 100% | kinase still bound, per cent of control [17]: 100% | kinase still bound, per cent of control [18]: 100% | kinase still bound, per cent of control [19]: 100% | kinase still bound, per cent of control [20]: 100% | kinase still bound, per cent of control [21]: 100% | kinase still bound, per cent of control [22]: 44% | kinase still bound, per cent of control [23]: 87% | kinase still bound, per cent of control [24]: 100% | kinase still bound, per cent of control [25]: 100% | kinase still bound, per cent of control [26]: 100% | kinase still bound, per cent of control [27]: 100% | kinase still bound, per cent of control [28]: 100% | kinase still bound, per cent of control [29]: 72% | kinase still bound, per cent of control [30]: 100% | kinase still bound, per cent of control [31]: 96% | kinase still bound, per cent of control [32]: 98% | kinase still bound, per cent of control [33]: 100% | kinase still bound, per cent of control [34]: 100% | kinase still bound, per cent of control [35]: 86% | kinase still bound, per cent of control [36]: 100% | kinase still bound, per cent of control [37]: 100% | kinase still bound, per cent of control [38]: 100% | kinase still bound, per cent of control [39]: 100% | kinase still bound, per cent of control [40]: 100% | kinase still bound, per cent of control [41]: 100% | kinase still bound, per cent of control [42]: 100%
SMILES: CN1CCN(c2ccc(C(=O)Nc3ncc4c(n3)N(C)c3ccccc3C(=O)N4C)cc2)CC1

kinase still bound, per cent of control [1]: 27% | kinase still bound, per cent of control [2]: 5.8% | kinase still bound, per cent of control [3]: 94% | kinase still bound, per cent of control [4]: 88% | kinase still bound, per cent of control [5]: 100% | kinase still bound, per cent of control [6]: 100% | kinase still bound, per cent of control [7]: 80% | kinase still bound, per cent of control [8]: 85% | kinase still bound, per cent of control [9]: 100% | kinase still bound, per cent of control [10]: 100% | kinase still bound, per cent of control [11]: 80% | kinase still bound, per cent of control [12]: 5.4% | kinase still bound, per cent of control [13]: 100% | kinase still bound, per cent of control [14]: 96% | kinase still bound, per cent of control [15]: 16% | kinase still bound, per cent of control [16]: 100% | kinase still bound, per cent of control [17]: 100% | kinase still bound, per cent of control [18]: 61% | kinase still bound, per cent of control [19]: 97% | kinase still bound, per cent of control [20]: 90% | kinase still bound, per cent of control [21]: 87% | kinase still bound, per cent of control [22]: 1.9% | kinase still bound, per cent of control [23]: 85% | kinase still bound, per cent of control [24]: 82% | kinase still bound, per cent of control [25]: 100% | kinase still bound, per cent of control [26]: 85% | kinase still bound, per cent of control [27]: 0.6% | kinase still bound, per cent of control [28]: 91% | kinase still bound, per cent of control [29]: 100% | kinase still bound, per cent of control [30]: 100% | kinase still bound, per cent of control [31]: 59% | kinase still bound, per cent of control [32]: 100% | kinase still bound, per cent of control [33]: 100% | kinase still bound, per cent of control [34]: 87% | kinase still bound, per cent of control [35]: 93% | kinase still bound, per cent of control [36]: 45% | kinase still bound, per cent of control [37]: 59% | kinase still bound, per cent of control [38]: 50% | kinase still bound, per cent of control [39]: 73% | kinase still bound, per cent of control [40]: 3% | kinase still bound, per cent of control [41]: 100% | kinase still bound, per cent of control [42]: 21%
SMILES: CN1C(=O)c2ccccc2N(C)c2nc(Nc3ccc(N4CCC(O)CC4)cc3)ncc21
